Experimental data reported in patent US20240239755A1, “SUBSTITUTED PYRIDAZINONES, SALTS OR N-OXIDES THEREOF AND THEIR USE AS HERBICIDALLY ACTIVE SUBSTANCES” (Bayer Aktiengesellschaft, priority 2021, published 2024).

How the values were obtained:
Format in all cases: in vivo
Kochia scoparia (KCHSC) [1] = experiment: Herbicidal pre-emergence action, 1280 g/ha (Table A4); conditions: visual grading after ca. 3 weeks vs untreated controls
In short: (§1)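 Pre-emergence soil-surface spray, sandy loam, mono-/dicot double sowings per pot; WP or EC formulations, aqueous, +0.5% additive, 600 L/ha water. Greenhouse, optimum conditions. Visual % damage vs untreated at ca. 3 wk (100% = dead).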

[2] = tested on: Abutilon theophrasti (ABUTH); experiment: Herbicidal post-emergence action, 320 g/ha, ABUTH; conditions: visual grading after ca. 3 weeks
In short: (§2)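 Post-emergence spray at single-leaf stage; WP/EC in aqueous suspension/emulsion, 0.5% additive, 600 L water/ha. Greenhouse ~3 wk, visual rating vs untreated: 0% = as control, 100% = plants dead.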

Stellaria media (STEME) [3] = experiment: Herbicidal pre-emergence action, 320 g/ha, STEME; conditions: visual grading after ca. 3 weeks
In short: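 Weed seeds sown in sandy loam pots; WP or EC formulations applied pre-emergence to the covering soil surface at 320 g/ha with 0.5% additive in 600 L water/ha. Greenhouse growth; visual damage scored after ca. 3 weeks versus untreated controls (100% = plants died, 0% = as control).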

[4] = tested on: Abutilon theophrasti (ABUTH); experiment: Herbicidal post-emergence action, 1280 g/ha (Table B1); conditions: visual assessment after ca. 3 weeks vs untreated controls
In short: (§3)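 Post-emergence greenhouse pot test: weeds in sandy loam sprayed at single-leaf stage, 2–3 weeks after sowing, with WP or EC formulations plus 0.5% additive at 600 L water/ha. Effect scored visually ca. 3 weeks later versus untreated controls, 0% = as control, 100% = plants dead.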

Stellaria media (STEME) [5] = experiment: Herbicidal pre-emergence action, 1280 g/ha (Table A9); conditions: visual grading after ca. 3 weeks vs untreated controls
In short: as §1

Veronica persica (VERPE) [6] = experiment: Herbicidal post-emergence action, 1280 g/ha, VERPE; conditions: visual grading vs untreated controls
In short: (§4)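 Pot-grown weeds in sandy loam sprayed post-emergence at the single-leaf stage, 2–3 weeks after sowing, with WP or EC formulations plus 0.5% additive in 600 L water/ha at 1280 g/ha. After ca. 3 weeks in the greenhouse, damage scored visually as % effect versus untreated controls (100% = plants dead).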

Veronica persica (VERPE) [7] = experiment: Herbicidal post-emergence action, 320 g/ha, VERPE; conditions: visual grading after ca. 3 weeks
In short: as §2

Kochia scoparia (KCHSC) [8] = experiment: Herbicidal post-emergence action, 1280 g/ha (Table B4); conditions: visual assessment after ca. 3 weeks vs untreated controls
In short: as §3

Lolium rigidum (LOLRI) [9] = experiment: Herbicidal pre-emergence action, 320 g/ha (Table C2); conditions: visual grading after ca. 3 weeks vs untreated controls
In short: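 Applied pre-emergence to the surface of soil covering weed seeds sown in sandy loam, as WP or EC formulations in water with 0.5% additive at 600 L/ha. Greenhouse-grown; damage graded visually at ca. 3 weeks as percent of untreated controls (100% = plants died).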

[10] = tested on: Matricaria inodora (MATIN); experiment: Herbicidal pre-emergence action, 320 g/ha (Table C3); conditions: visual grading after ca. 3 weeks vs untreated controls
Excerpt: (§5) Seeds of mono- and dicotyledonous weed plants were sown in plastic pots (double sowings with one species of mono- and one species of dicotyledonous weed plants per pot), in sandy loam, and covered with soil. The compounds according to the invention, formulated in the form of wettable powders (WP) or as emulsifiable concentrates (EC), were applied to the surface of the covering soil as an aqueous suspension or as an emulsion, with the addition of 0.5% of an additive, at an application rate of 600 litres of water per hectare (converted). Following treatment, the pots were placed in a greenhouse and kept under optimum growth conditions for the test plants. The visual grading of the damage to the test plants was carried out after ca. 3 weeks in comparison to untreated controls (herbicidal effect in percent (%): 100% effect=plants have died, 0% effect=as control plants). Tables C1 to C6 below, show the effects of selected compounds of the general formula (I) according to Table 1 on various harmful plants using an application rate corresponding to 320 g/ha obtained by the experimental procedure mentioned above.

[11] = tested on: Amaranthus retroflexus (AMARE); experiment: Herbicidal pre-emergence action, 1280 g/ha (Table A11); conditions: visual grading after ca. 3 weeks vs untreated controls
In short: as §1

[12] = tested on: Matricaria inodora (MATIN); experiment: Herbicidal pre-emergence action, 1280 g/ha (Table A6); conditions: visual grading after ca. 3 weeks vs untreated controls
In short: as §1

Stellaria media (STEME) [13] = experiment: Herbicidal post-emergence action, 1280 g/ha (Table B9); conditions: visual assessment after ca. 3 weeks vs untreated controls
In short: as §3

Lolium rigidum (LOLRI) [14] = experiment: Herbicidal pre-emergence action, 1280 g/ha (Table A5); conditions: visual grading after ca. 3 weeks vs untreated controls
In short: as §1

Poa annua (POAAN) = experiment: Herbicidal pre-emergence action, 1280 g/ha (Table A7); conditions: visual grading after ca. 3 weeks vs untreated controls
In short: as §1

[15] = tested on: Matricaria inodora (MATIN); experiment: Herbicidal post-emergence action, 1280 g/ha (Table B6); conditions: visual assessment after ca. 3 weeks vs untreated controls
In short: as §3

[16] = tested on: Matricaria inodora (MATIN); experiment: Herbicidal post-emergence action, 320 g/ha, MATIN; conditions: visual grading after ca. 3 weeks
In short: as §2

[17] = tested on: Amaranthus retroflexus (AMARE); experiment: Herbicidal post-emergence action, 1280 g/ha, AMARE; conditions: visual grading vs untreated controls
In short: as §4

[18] = tested on: Amaranthus retroflexus (AMARE); experiment: Herbicidal post-emergence action, 320 g/ha, AMARE; conditions: visual grading after ca. 3 weeks
In short: as §2

[19] = tested on: Digitaria sanguinalis (DIGSA); experiment: Herbicidal post-emergence action, 1280 g/ha (Table B2); conditions: visual assessment after ca. 3 weeks vs untreated controls
Excerpt: Seeds of mono- and dicotyledonous weed plants were sown in plastic pots (double sowings with one species of mono- and one species of dicotyledonous weed plants per pot), in sandy loam, covered with soil and grown under controlled growth conditions. 2 to 3 weeks after sowing, the test plants were sprayed in the single-leaf stage. The compounds according to the invention, formulated in the form of wettable powders (WP) or as emulsifiable concentrates (EC), were sprayed onto the green plant parts as an aqueous suspension or as an emulsion, with the addition of 0.5% of an additive, at an application rate of 600 litres of water per hectare (converted). The test plants were placed in the greenhouse for ca. 3 weeks under optimum growth conditions, and then the effect of the preparations was assessed visually in comparison with untreated controls (herbicidal effect in percent (%): 100% effect=plants have died, 0% effect=as control plants). Tables B1 to B11 below, show the effects of selected compounds of the general formula (I) according to Table 1 on various harmful plants using an application rate corresponding to 1280 g/ha obtained by the experimental procedure mentioned above.

Setaria viridis (SETVI) = experiment: Herbicidal pre-emergence action, 1280 g/ha (Table A8); conditions: visual grading after ca. 3 weeks vs untreated controls
In short: as §1

[20] = tested on: Amaranthus retroflexus (AMARE); experiment: Herbicidal pre-emergence action, 320 g/ha, AMARE; conditions: visual grading after ca. 3 weeks
Excerpt: as §5, with “plants).” for “plants). Tables C1 to C6 below, show the effects of selected compounds of the general formula (I) according to Table 1 on various harmful plants using an application rate corresponding to 320 g/ha obtained by the experimental procedure mentioned above.”
Tables C1 to C6 below, show the effects of selected compounds of the general formula (I) according to Table 1 on various harmful plants using an application rate corresponding to 320 g/ha obtained by the experimental procedure mentioned above.

Stellaria media (STEME) [21] = experiment: Herbicidal post-emergence action, 320 g/ha, STEME; conditions: visual grading after ca. 3 weeks
In short: as §2

[22] = tested on: Abutilon theophrasti (ABUTH); experiment: Herbicidal pre-emergence action, 1280 g/ha (Table A1); conditions: visual grading after ca. 3 weeks vs untreated controls
In short: as §1

Lolium rigidum (LOLRI) [23] = experiment: Herbicidal post-emergence action, 1280 g/ha (Table B5); conditions: visual assessment after ca. 3 weeks vs untreated controls
In short: as §3

SMILES	herbicidal effect STEME (Stellaria media (STEME) [3])	herbicidal effect STEME (Stellaria media (STEME) [5])	herbicidal effect VERPE (Veronica persica (VERPE) [6])	herbicidal effect KCHSC (Kochia scoparia (KCHSC) [8])	herbicidal effect LOLRI (Lolium rigidum (LOLRI) [9])	herbicidal effect MATIN [10]	herbicidal effect AMARE [11]	herbicidal effect MATIN [12]	herbicidal effect STEME (Stellaria media (STEME) [13])	herbicidal effect LOLRI (Lolium rigidum (LOLRI) [14])	herbicidal effect POAAN (Poa annua (POAAN))	herbicidal effect AMARE [17]	further results
Cc1nn(C)c(=O)c(Oc2cc(F)ccc2Br)c1O [Example I-026]	100%	100%	90%	90%	90%	90%	100%	100%	90%	100%	90%	100%	herbicidal effect KCHSC (Kochia scoparia (KCHSC) [1]): 90%; herbicidal effect ABUTH [2]: 90%; herbicidal effect ABUTH [4]: 100%; herbicidal effect VERPE (Veronica persica (VERPE) [7]): 90%; herbicidal effect MATIN [15]: 100%; herbicidal effect MATIN [16]: 90%; herbicidal effect AMARE [18]: 90%
Cc1nn(C)c(=O)c(Oc2ccc(Br)cc2)c1O [Example I-068]			90%	90%			90%						herbicidal effect DIGSA [19]: 90%; herbicidal effect SETVI (Setaria viridis (SETVI)): 90%
Cc1nn(C)c(=O)c(Oc2ccccc2C#N)c1O [Example I-028]	100%	100%				100%		100%			100%	90%	
Cc1nn(C)c(=O)c(Oc2cc(Cl)ccc2Br)c1O [Example I-091]	100%	100%			100%	90%	100%	100%	90%	100%			herbicidal effect AMARE [20]: 90%; herbicidal effect STEME (Stellaria media (STEME) [21]): 90%; herbicidal effect ABUTH [22]: 90%; herbicidal effect LOLRI (Lolium rigidum (LOLRI) [23]): 90%
